Results as given in US10232021B2, “Calcitonin mimetics for treating diseases and disorders” (KEYBIOSCIENCE AG, priority 2013, dated 2019).
Bridges are numbered along the chain shown (N, C = ends).

Legend:
[1] = biological target: T1, Calcitonin Receptor (CTR) (Homo sapiens, UniProt P30988); experiment: PathHunter β-arrestin assay on the calcitonin receptor, incl. prolonged activation; type: cell-based; settings: U20S-CALCR cells; 4, 8, 24, 48, 72 h; 0.001-100 nM
T1 construct: host or cells: U2OS
T1 sequence (P30988 25-474): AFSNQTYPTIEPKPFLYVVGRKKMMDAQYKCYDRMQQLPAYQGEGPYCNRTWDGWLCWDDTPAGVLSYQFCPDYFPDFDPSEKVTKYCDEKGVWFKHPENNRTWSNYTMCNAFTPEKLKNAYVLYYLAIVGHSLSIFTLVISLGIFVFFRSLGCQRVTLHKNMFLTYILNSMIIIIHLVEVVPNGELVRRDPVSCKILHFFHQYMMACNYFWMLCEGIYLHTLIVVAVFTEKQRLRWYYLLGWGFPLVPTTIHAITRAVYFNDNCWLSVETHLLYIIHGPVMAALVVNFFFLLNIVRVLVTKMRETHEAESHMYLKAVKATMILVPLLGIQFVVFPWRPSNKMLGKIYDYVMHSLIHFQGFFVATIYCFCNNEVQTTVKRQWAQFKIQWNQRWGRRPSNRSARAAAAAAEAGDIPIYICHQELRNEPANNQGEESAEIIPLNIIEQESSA
Description: The following cell lines expressing the calcitonin, amylin and CGRP receptors were purchased and cultured according to the manufacturer's instructions. • 1. Calcitonin Receptor (CTR): U20S-CALCR from DiscoveRx (Cat. No.: 93-0566C3). • 2. Amylin Receptor (AMY-R): CHO-K1 CALCR+RAMP3 from DiscoveRx (Cat. No.: 93-0268C2). • 3. CGRP Receptor (CGRP-R): CHO-K1 CALCRL+RAMP1 from DiscoveRx (Cat. No.: 93-0269C2).
In independent bioassays, CTR, AMY-R and CGRP-R cells were treated with for the indicated timepoints with increasing doses of sCT, UGP-302/KBP-042 or the KBPs identified in Table 3 (0, 0.001, 0.01, 0.1, 1, 10, and 100 nM). […]
In this system, the GPCR is fused in frame with the small enzyme fragment ProLink™ and co-expressed in cells stably expressing a fusion protein of β-Arrestin and the larger, N-terminal deletion mutant of β-gal (called enzyme acceptor or EA). […] This interaction leads to an increase in enzyme activity that can be measured using chemiluminescent PathHunter® Detection Reagents.
The assay was performed in white 384 well plates (Greiner Bio-One, 784080). […] To quantify the GPCR-mediated β-arrestin recruitment the Pathhunter™ Detection Kit (93-0001, DiscoverX) was used and assay performed accordingly to the manufacturer's instructions. […]

[2] = Acute single-dose test on food intake, bodyweight and post-prandial glucose in high fat diet obese rats; type: in vivo, Male Sprague-Dawley rats
Description: To ensure the in vivo activity of this class of peptides, an acute test of the ability of KBP-056 to reduce food intake, bodyweight and post-prandial glucose compared to UGP302/KBP-042 was conducted. Male Sprague-Dawley rats were fed high fat diet for 8 weeks to induce obesity, and were then exposed to a single subcutaneous dose of 5 μg/kg KBP-056, UGP302/KBP-042 or vehicle (saline) (5 rats per group), and the effect on food intake, bodyweight and blood glucose was assessed. Blood was collected from the tail vein after 18 hours of dosing. Whole blood glucose levels were determined with an ACCU-CHEK® Avia blood glucose meter (Roche Diagnostics, Rotkreuz, Switzerland).

[3] = Three-week treatment of ZDF rats: fasting plasma glucose and HbA1c; type: in vivo, male ZDF (fa/fa) rats; settings: 5 μg/kg/day subcutaneously once daily, 3 weeks
Description: To assess the effects of the peptides in relation to regulation of blood glucose levels, male ZDF rats, which are the gold standard model of Type 2 Diabetes were treated for 3 weeks with the 3 most promising KBPs (023, 056 and 088) and an active comparator (UGP302/KBP-042). Male ZDF (fa/fa) rats were obtained at the age of 7 weeks from Charles River Laboratories (Kisslegg, Deutschland). All animals were housed at the animal facility at Nordic Bioscience with a constant temperature (21-23° C.) and relative humidity (55-65%) on a 12 h light/dark cycle with free access to Purina 5008 rat chow (Brogaarden, Lynge, Denmark) and tap water. At the age of 8 weeks, the animals were randomized into five groups of 8 rats each based upon fasting blood glucose and body weight (Vehicle (saline), UGP302/KBP-042 5 μg/kg/day, KBP-023 5 μg/kg/day, KBP-056 5 μg/kg/day and KBP-088 5 μg/kg/day) and dosing was done subcutaneously once daily. The animals were treated for a total of 3 weeks to assess the effect of the peptides on fasting blood glucose. Blood glucose was monitored using the Accu-Check® Avia monitoring system (Roche Diagnostics, Rotkreuz, Switzerland) and HbA1c levels by the DCA Vantage™ Analyzer (Siemens Healthcare Diagnostics, Deerfield, Ill.).

[4] = Bone resorption (CTX-I) and cartilage degradation (CTX-II) in rats on HFD; type: in vivo; settings: male rats on HFD
Source text: This confirmed that the KBPs maintain their beneficial effects on bone and cartilage despite the amino-acid changes.

[5] = Eight-week treatment of obese rats: food intake and bodyweight; type: in vivo; settings: 2.5 μg/kg/day subcutaneous
Description: To further investigate the potency of KBP-089 against KBP-042 obese rats were dosed with 2.5 μg/kg/day given as subcutaneous injection of either KBP-089 or KBP-042 and then two control groups, a vehicle and a calorie restriction group, in which the food intake was matched to the food intake of the KBP-089 group to shed light on whether effects independent of food intake could be observed.
In FIGS. 11A-11B; the effect of the peptides on food intake (FIG. 11A) and bodyweight (FIG. […]) during the eight week treatment period is shown in the upper and lower panels respectively. […] Additionally, when comparing KBP-089 to the calorie restricted control group (pair-fed), which has received exactly the same amount of food as the KBP-089 group over the study period, it is clear that the weight reduction is not only mediated by a restriction of food intake, but also by other effects.

[6] = Single-dose food intake in obese High-Fat-Diet rats; type: in vivo; settings: single subcutaneous dose 1.25, 2.5, 5 μg/kg; obese rats fasted overnight
Description: Rats were fed a High-Fat-Diet for 14 weeks prior to the experiment to induce obesity.
Further similar studies were undertaken over different time periods and with different peptides and the results are seen in FIG. 10 and FIGS. 11A-11B. The ability of KBP089 to suppress food intake over 72 hours was compared to that of KBP042 as control and the results are seen in FIG. 10.

KBP-056: SEQ ID NO: 11; AcCASLSTCVLGKLSQDLHKLQTFPRTDVGANAP-NH2 as printed in Table 3, Cys1-Cys7 disulphide bridge
activation of the CTR (β-arrestin) [1]: superior ability to activate and maintain activation of the CTR | food intake ([2]; single subcutaneous dose 5 μg/kg, 18-hour period, obese HFD rats): strongly reduced food intake | post-prandial glucose ([2]; single subcutaneous dose 5 μg/kg, blood after 18 hours, obese HFD rats): prominent reduction in post-prandial glucose levels | bodyweight ([2]; single subcutaneous dose 5 μg/kg, obese HFD rats): significant weight loss | HbA1c [3]: highly active | fasting plasma glucose (FPG) [3]: highly active | bone resorption (CTX-I) [4]: dose and time-dependently reduced | cartilage degradation (CTX-II) [4]: dose and time-dependently reduced | maximum inhibition of CTX-I and CTX-II [4]: reached three hours after dosing and at doses exceeding 1 μg/kg/day

KBP-042: Peptide UGP302 of WO2013/067357, SEQ ID NO: 4; AcCSNLSTCVLGKLSQELHKLQTYPRTDVGANAP-NH2 (Ac-CSNLSTCVLGKLSQELHKLQTYPRTDVGANAP-NH2; ends and bridges not checked) [reference compound]
RANK (48 h) ([2]; rank symbol + or 0 at 48 h, legend not given): 0 | bodyweight during eight week treatment [5]: substantial weight loss | food intake during eight week treatment [5]: reduce food intake dramatically in the beginning

KBP-089: SEQ ID NO: 44; AcCSNLSTCMLGRLSQDLHRLQTYPKTDVGANAP-NH2, Cys1-Cys7 disulphide bridge (Ac-CSNLSTCMLGRLSQDLHRLQTYPKTDVGANAP-NH2; disulfide 1-7; SMILES CSCC[C@H](NC(=O)[C@@H]1CSSC[C@H](NC(C)=O)C(=O)N[C@@H](CO)C(=O)N[C@@H](CC(N)=O)C(=O)N[C@@H](CC(C)C)C(=O)N[C@@H](CO)C(=O)N[C@@H]([C@@H](C)O)C(=O)N1)C(=O)N[C@@H](CC(C)C)C(=O)NCC(=O)N[C@@H](CCCNC(=N)N)C(=O)N[C@@H](CC(C)C)C(=O)N[C@@H](CO)C(=O)N[C@@H](CCC(N)=O)C(=O)N[C@@H](CC(=O)O)C(=O)N[C@@H](CC(C)C)C(=O)N[C@@H](Cc1c[nH]cn1)C(=O)N[C@@H](CCCNC(=N)N)C(=O)N[C@@H](CC(C)C)C(=O)N[C@@H](CCC(N)=O)C(=O)N[C@H](C(=O)N[C@@H](Cc1ccc(O)cc1)C(=O)N1CCC[C@H]1C(=O)N[C@@H](CCCCN)C(=O)N[C@H](C(=O)N[C@@H](CC(=O)O)C(=O)N[C@H](C(=O)NCC(=O)N[C@@H](C)C(=O)N[C@@H](CC(N)=O)C(=O)N[C@@H](C)C(=O)N1CCC[C@H]1C(N)=O)C(C)C)[C@@H](C)O)[C@@H](C)O)
food intake, 0-4 hours [6]: led to a reduction in food intake | food intake, 4-24 hours [6]: the effect was maintained to 24 hours | food intake, 24-48 hours [6]: led to a reduction in food intake | bodyweight during eight week treatment [5]: greater than that introduced by KBP-042 | food intake during eight week treatment [5]: reduce food intake dramatically in the beginning
